From patent US6686388B2, “Regulators of the hedgehog pathway, compositions and uses related thereto” (priority 1999, dated 2004)
Where two headings read alike, the source gives them in different places.

Experiments:
[1] = system: medulloblastoma tumor cells; assay type: cell-based, mouse
Method: These medulloblastoma cells were derived from tumors that arose in the brains of mice heterozygous for an inactivating mutation in the ptc gene (“heterozygous ptc knockout mice”). Mutation of ptc leads to inappropriate activation of the Hh signaling pathway, and in these ptc knockout mice, the ptc mutation results in the occurrence of medulloblastomas. The medulloblastoma tumor cells were placed into primary culture in neuronal culture medium (Basal Medium of Eagle, with 10% calf serum, 25 mM KCl, and 2 mM glutamine). Cells were typically seeded at 0.5 or 1.0×10^6 cells/well of a 24 well plate, in 0.5 ml of medium per well. […] From 2-3 DIV, bromodeoxyuridine (BrdU) was added to the cultures, to label proliferating cells. On 3 DIV, cells were fixed with paraformaldehyde. […] The numbers of total and BrdU(+) cells were then scored in multiple fields in wells of each condition, to determine the percent proliferating cells under different treatments. The scorer was blinded as to the treatments of the cells.
(§1) To determine the effects of cAMP agonist drugs on the Hedgehog (Hh) signaling pathway in tumor cells, medulloblastoma cells were grown in primary culture. These medulloblastoma brain tumors arose in mice heterozygous for an inactivating mutation in the ptc-1 gene (“heterozygous ptc knockout mice”). Mutation of ptc-1 leads to inappropriate activation of the Hh signaling pathway, and in these ptc-1 knockout mice, the ptc-1 mutation results in the occurrence of medulloblastoma. The medulloblastoma tumor cells were placed into primary culture in neuronal culture medium (Basal Medium of Eagle, with 10% serum, 25 mM KCl, and 2 mM glutamine). Cells were typically seeded at 0.5 or […] cells/well of a 24 well plate, in 0.5 ml of medium. One day after seeding (i.e., on 1 day in vitro, or DIV), cells were treated with forskolin (50 μM final), or an equal amount of vehicle (0.1% DMSO). On 3 DIV, RNA was isolated from the cells, and the expression of the Hh-response gene gli-1 was determined by RT-PCR analysis.
In order to test the effects of cAMP agonists on the proliferation of Hh-pathway tumor cells, primary medulloblastoma cell cultures were similarly treated with forskolin or control vehicle. From 2-3 DIV, bromodeoxyuridine (BrdU) was then added to the cultures, to label proliferating cells. On 3 DIV, cells were fixed with paraformaldehyde. […] The number of total and BrdU(+) cells were then scored in multiple fields in wells of each condition, to determine the percent proliferating cells under different treatments. The scorer was blinded as to the treatments of the cells.

medulloblastoma cells = assay: tritiated thymidine incorporation assay in medulloblastoma cells; assay type: cell-based, mouse; conditions: typical assay
Method: In order to test the effects of cAMP agonists on the proliferation of Hh-pathway tumor cells, primary medulloblastoma cell cultures were similarly treated with forskolin or control vehicle. From 2-3 DIV, bromodeoxyuridine (BrdU) was then added to the cultures, to label proliferating cells. On 3 DIV, cells were fixed with paraformaldehyde. Cells were then immunostained with an antibody to BrdU to identify cells that had been proliferating, and counterstained with bisbenzimide to determine total cell number. The number of total and BrdU(+) cells were then scored in multiple fields in wells of each condition, to determine the percent proliferating cells under different treatments. The scorer was blinded as to the treatments of the cells. […] Similar results were obtained when proliferation was measured using a tritiated thymidine incorporation assay, and other cAMP agents were also found to be effective.

Hh signaling = assay: Xgal staining of subcutaneous medulloblastoma tumors after drug infusion; assay type: in vivo, mouse; conditions: tumor infusion for several days, compared to control (water)
Text: (§2) To determine whether Hh signaling inhibitors can inhibit tumor growth in vivo, medulloblastoma cells from ptc-1 knockout mice were transplanted subcutaneously into athymic (“nude”) mice. After allowing time for the tumor cells to grow at the injection site, the transplanted mice were divided into groups, and treated with either control vehicle, or cAMP agonist drugs. In one set of experiments, tumors were infused with either H-forskolin, or water as a control. After several days of drug infusion, the mice were sacrificed, and the tumors were sectioned for histology. The transplanted medulloblastoma cells from the ptc knockout mice contain a lacZ transgene (encoding β-galactosidase), the expression of which is induced by Hh signaling. Therefore, the level of β-galactosidase in these cells indicates their level of […] signaling. Thus, in order to determine how effectively the infused drug inhibited Hh signaling in the tumor, the tumor sections were stained for β-galactosidase activity using the substrate Xgal, which stains expressing cells blue.

[2] = system: medulloblastoma cells from ptc-1 knockout mice; assay: growth of subcutaneous-transplanted medulloblastoma tumors in nude mice; assay type: in vivo, mouse
Text: as §2
In order to determine whether Hh pathway inhibitors can inhibit tumor growth in vivo, cAMP agonists were administered to mice that, as above, had subcutaneous medulloblastoma tumors. In one experiment, one group of mice received daily intraperitoneal injections of forskolin, while control mice received equivalent injections of vehicle (DMSO). The volumes of the tumors were regularly determined by measuring tumor dimensions with a caliper. In the mice treated with DMSO control, the tumors grew much more rapidly than in the mice treated with forskolin. […] In a similar experiment, H-forskolin or control vehicle was administered systemically to mice continuously, via an osmotic minipump that was implanted subcutaneously (and replaced regularly). Again in this experiment (FIG. 13), tumor size was smaller in the H-forskolin-treated mice than in the control mice.

gli-1 = gli-1 expression by RT-PCR in primary medulloblastoma cells; assay type: cell-based, mouse; conditions: 50 μM, RNA on 3 DIV
Method: as §1

[3] = system: hair follicle development; assay: topical application on newborn Ptc-lacZ mice, skin histology; assay type: in vivo, mouse; conditions: 5 mM in DMSO topical, twice a day, 7 days
Method: This effect may be due to the inhibition of the Hh pathway by forskolin, as the Hh pathway plays a critical role in hair follicle development (FIG. 14). Postnatal day 2 mouse pups were used for this experiment. For each pup, 5 μl of DMSO or forskolin in DMSO (5 mM) was applied on the center of the back using a micro-pipette tip. The same procedure is repeated twice, with a total of […] compound applied each time. The procedure was performed on the same animal twice a day for a period of 7 days. The pups were then sacrificed and the skin was taken from the applied area for histology analysis. H&E staining was performed on the paraffin embedded sections.

hair development = assay: injection of pregnant female mouse, hair development in the fetus; assay type: in vivo
Method: For these experiments, 20 μl of forskolin in DMSO (50 mM) was injected into a pregnant female mouse daily for E14.5 to E17.5 intraperitoneally. The mouse was sacrificed at E17.5 and the fetuses were removed for gross inspection. The skin from each fetus was processed for H&E staining.

[4] = system: basal cell carcinoma tissue; assay: subcutaneous injection near basal cell carcinoma, histology; assay type: in vivo, mouse; conditions: subcutaneous near the tumor, once a day, 21 days
Method: Experiments were conducted to determine the effect of cAMP elevating agents on basal cell carcinoma tissue. A solution of forskolin (50 mM) in ethanol was diluted 1:2 with cremophor (resulting in 50% ethanol/50% cremophor), then diluted 1:5 with PBS or normal saline (resulting in final 10% ethanol/10% cremophor/80% PBS or saline. The solution was administered by subcutaneous injection at different sites near the tumor (e.g., within a few millimeters of the margin), but not into the tumor itself. Treatment continued once a day every 24 hours for 21 days, 1 μl compound/g weight. After treatment, tumor size was measured, and the tumor was removed and analyzed by histology to determine morphological changes. Untreated BCC tissue is depicted in FIG. 16, and forskolin-treated tissue is depicted in FIGS. 17-18.

hair follicles = assay: hydron pellet implantation into ptc-1 lacZ skin punches, 8 days of culture; assay type: cell-based, mouse; conditions: implanted pellets, Shh supplied with the culture medium
Method: FIG. 19 depicts hydron pellet implantation into 3-day mouse ptc-1 lacZ skin punches after 8 days of culture. Ethanol, hydron polymer, and Shh or forskolin in PBS, respectively, were mixed according to the manufacturer's instructions, poured in 2 mm pellet casts and dried/UV-irradiated over night. Alternatively, 3 mg/ml of octylated Shh protein was added to the culture medium (on day 1, 3 and 5) for the medium control as well as the forskolin-pellet implant. 3-day-old skin was harvested from the backs of mouse pups transgenic for ptc-1 lacZ, as identified by lacZ reporter detection using tails, by standard procedures. 6 mm skin punches were taken using Miltex skin punches and incubated for 60 min. Pellets were inserted by carefully separating the dermal from the epidermal layer using forceps. Cultures were grown for 8 days, fixed in lacZ fixative according to standard protocols, rinsed and stained for lacZ over night at 37° C.
Results: (A) Untreated control, showing a small number of short hairs. […] Hair length and thickness of the dermis thickness are increased as well. Ptc-lacZ, a reporter gene indicative of Shh signaling is induced in follicular as well as basal cells (blue stain), although partially obscured by melanin. […] Note the highly localized area of follicle induction, corresponding to the area adjacent to bead insertion. […]

[5] = 10 μM, BrdU 2-3 DIV, fixed 3 DIV, typical experiment

## CC1=C2C(=O)[C@H]3[C@@H](CC=C4C[C@@H](O)CC[C@@]43C)[C@@H]2CC[C@]12O[C@@H]1C[C@H](C)CN[C@H]1[C@H]2C [jervine]
[1]; 10 μM
  inhibition of proliferation of the medulloblastoma cells: strongly inhibit proliferation
[1]; [5]
  percent proliferation (BrdU(+) cells): 0.2%

## CC1=C2C[C@H]3[C@@H](CC=C4C[C@@H](O)CC[C@@]43C)[C@@H]2CC[C@]12O[C@@H]1C[C@H](C)CN[C@H]1[C@H]2C [cyclopamine]
[1]; 10 μM
  inhibition of proliferation of the medulloblastoma cells: strongly inhibit proliferation

## C[C@H]1CC[C@]2(NC1)O[C@H]1C[C@H]3[C@@H]4CC[C@H]5C[C@@H](O)CC[C@]5(C)[C@H]4CC[C@]3(C)[C@H]1[C@@H]2C [tomatidine]
[1]; [5]
  percent proliferation (BrdU(+) cells): 5.9%

## C=CC1(C)CC(=O)C2(O)C(C)(O1)C(OC(=O)CCCN1CCN(C)CC1)C(O)C1C(C)(C)CCC(O)C12C (centres unmarked) [H-forskolin, 7-deacetyl-7-[O-(N-methylpiperazino)-gamma-butyryl]-forskolin]
Medulloblastoma cells
  inhibition of tritiated thymidine incorporation: 91%
Hh signaling
  Xgal staining of tumors: reduced Xgal staining
[2]; systemic, continuous via subcutaneous osmotic minipump, versus control mice
  tumor size: smaller

## forskolin
[1]; forskolin 50 μM
  inhibition of proliferation of the medulloblastoma cells: strongly inhibit proliferation
[1]; forskolin 50 μM versus DMSO control
  inhibition of proliferation: 95%
[1]; forskolin 50 μM, typical experiment (FIG. 5)
  percent proliferation (BrdU(+) cells): 0.4%
gli-1
  gli-1 expression: strongly inhibit gli-1 expression
Medulloblastoma cells
  inhibition of tritiated thymidine incorporation: 93%
Hh signaling
  Xgal staining of tumors: lower Xgal staining
[2]; daily intraperitoneal injections
  tumor regression in one treated mouse: regressed, disappeared, and has not reappeared in over 60 days
[2]; daily intraperitoneal injections, versus DMSO
  tumor growth: did not grow excessively large
[3]
  hair density and hair follicle structure: decrease of hair density and abnormalities of hair follicle structure
Hair development; 20 μl of 50 mM in DMSO intraperitoneally daily E14.5 to E17.5
  hair development in the fetus: severe disruption of hair development
Hair development; 20 μl of 50 mM in DMSO intraperitoneally daily E14.5 to E17.5, some fetuses
  number of hair follicles in fetal skin: great reduction of the number of hair follicles
[4]
  BCC tissue histology: tumor shrinkage and/or cell death
Hair follicles
  hair follicles, hair length, pigmentation and dermis thickness: reduction of hair follicles, hair length, pigmentation and dermis thickness to levels comparable to the control
